Experimental data from patent US20220096487A1 (priority 2019, published 2022).
Where “and” joins values, the source holds several entries; their conditions need not be identical. Identical values can stand only once. Entries after “also recorded” stand apart in the source; their conditions may differ. Marks after values point to notes of the source that are not given here.

What was measured:
HIV = assay: Antiviral activity in combination with other antiviral agents; assay type: cell-based
[1] = Dolutegravir embryo-fetal development study in pregnant rats; assay type: in vivo, rat; details: oral up to 1,000 mg/kg daily, gestation Days 6 to 17
UGT2B7 = UGT2B7 (Homo sapiens, UniProt P16662); assay: In vitro inhibition of UGT2B7; assay type: in vitro ADME; details: did not inhibit
CYP2C9 = CYP2C9 (Homo sapiens, UniProt P11712); assay: In vitro inhibition of CYP2C9; assay type: in vitro ADME; details: did not inhibit
CYP2C9, sequence (P11712 whole entry): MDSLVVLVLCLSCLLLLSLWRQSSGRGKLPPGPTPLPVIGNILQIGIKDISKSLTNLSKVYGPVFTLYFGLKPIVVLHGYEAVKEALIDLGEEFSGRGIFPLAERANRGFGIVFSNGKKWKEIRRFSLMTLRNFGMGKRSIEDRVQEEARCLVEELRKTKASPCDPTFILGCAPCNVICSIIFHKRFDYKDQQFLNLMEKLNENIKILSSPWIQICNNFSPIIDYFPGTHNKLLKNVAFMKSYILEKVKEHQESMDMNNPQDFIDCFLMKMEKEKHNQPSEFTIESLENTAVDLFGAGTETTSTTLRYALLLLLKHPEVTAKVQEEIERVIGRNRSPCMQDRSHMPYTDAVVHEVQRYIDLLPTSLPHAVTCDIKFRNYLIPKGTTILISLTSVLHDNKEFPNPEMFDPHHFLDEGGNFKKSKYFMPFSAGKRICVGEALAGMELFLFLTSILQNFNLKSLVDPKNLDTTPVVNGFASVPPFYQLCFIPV

[2] = tested on: HIV-1 with integrase substitutions; assay: Selection of dolutegravir-resistant viruses in cell culture; assay type: cell-based
[3] = cited from earlier work
[4] = Thorough QT trial in healthy subjects; assay type: in vivo, human
CYP2D6 = CYP2D6 (Homo sapiens, UniProt P10635); assay: In vitro inhibition of CYP2D6; assay type: in vitro ADME; details: did not inhibit
CYP2D6, sequence (P10635 whole entry): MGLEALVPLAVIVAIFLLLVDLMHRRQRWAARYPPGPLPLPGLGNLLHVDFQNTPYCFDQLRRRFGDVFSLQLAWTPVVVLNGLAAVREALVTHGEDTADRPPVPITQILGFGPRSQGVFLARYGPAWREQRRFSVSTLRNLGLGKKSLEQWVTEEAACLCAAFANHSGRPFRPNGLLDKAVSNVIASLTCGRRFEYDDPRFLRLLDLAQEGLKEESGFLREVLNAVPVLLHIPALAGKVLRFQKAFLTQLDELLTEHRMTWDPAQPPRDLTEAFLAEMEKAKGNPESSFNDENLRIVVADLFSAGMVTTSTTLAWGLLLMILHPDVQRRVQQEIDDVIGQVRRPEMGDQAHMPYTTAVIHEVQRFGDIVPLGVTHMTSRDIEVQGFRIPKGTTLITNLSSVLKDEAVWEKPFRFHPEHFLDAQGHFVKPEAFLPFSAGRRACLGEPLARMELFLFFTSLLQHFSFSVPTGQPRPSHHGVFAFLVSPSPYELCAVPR

[5] = In vivo rodent micronucleus assay
[6] = tested on: HIV-1 clinical isolates (group M clades A-G, group O); assay: Antiviral activity in cell culture against panel of HIV-1 clinical isolates; assay type: cell-based; details: Human immunodeficiency virus 1; 3 in each group of M [clades A-G], and 3 in group O
CYP2B6 [7] = molecular target: CYP2B6 (Homo sapiens, UniProt P20813); assay: In vitro inhibition of CYP2B6; assay type: in vitro ADME; details: did not inhibit
CYP2B6 (Homo sapiens, UniProt P20813), sequence (P20813 whole entry): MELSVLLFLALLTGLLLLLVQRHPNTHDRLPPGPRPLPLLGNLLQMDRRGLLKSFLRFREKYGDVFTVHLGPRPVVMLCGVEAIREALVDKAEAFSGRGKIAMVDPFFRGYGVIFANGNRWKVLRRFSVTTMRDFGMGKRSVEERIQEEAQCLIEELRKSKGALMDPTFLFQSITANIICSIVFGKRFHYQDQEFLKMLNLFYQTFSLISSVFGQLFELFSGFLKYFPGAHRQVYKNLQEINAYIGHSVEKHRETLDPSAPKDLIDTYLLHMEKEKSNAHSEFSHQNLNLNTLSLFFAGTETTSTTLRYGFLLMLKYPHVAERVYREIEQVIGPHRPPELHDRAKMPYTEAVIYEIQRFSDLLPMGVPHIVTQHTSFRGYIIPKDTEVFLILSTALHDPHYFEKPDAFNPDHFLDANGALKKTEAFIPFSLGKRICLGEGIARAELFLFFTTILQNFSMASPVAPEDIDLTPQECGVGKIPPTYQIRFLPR

[8] = tested on: 13 clinically diverse clade B isolates; assay: Viral integrase susceptibility assay using integrase coding region from clinical isolates; assay type: cell-based, HIV-1; details: Human immunodeficiency virus 1; 13 clade B isolates
[9] = Single-dose mass balance study of [14C] dolutegravir; assay type: in vivo, human
[10] = Carcinogenicity studies in mice; details: two-year study, doses up to 500 mg/kg, highest dose tested
CYP2B6 [11] = assay: In vitro induction of CYP2B6; assay type: in vitro ADME
[12] = Pharmacokinetic properties of the components (Table 6); assay type: in vivo, human; details: in vivo
CYP1A2 = CYP1A2 (Homo sapiens, UniProt P05177); assay: In vitro inhibition of CYP1A2; assay type: in vitro ADME; details: did not inhibit
CYP1A2, sequence (P05177 whole entry): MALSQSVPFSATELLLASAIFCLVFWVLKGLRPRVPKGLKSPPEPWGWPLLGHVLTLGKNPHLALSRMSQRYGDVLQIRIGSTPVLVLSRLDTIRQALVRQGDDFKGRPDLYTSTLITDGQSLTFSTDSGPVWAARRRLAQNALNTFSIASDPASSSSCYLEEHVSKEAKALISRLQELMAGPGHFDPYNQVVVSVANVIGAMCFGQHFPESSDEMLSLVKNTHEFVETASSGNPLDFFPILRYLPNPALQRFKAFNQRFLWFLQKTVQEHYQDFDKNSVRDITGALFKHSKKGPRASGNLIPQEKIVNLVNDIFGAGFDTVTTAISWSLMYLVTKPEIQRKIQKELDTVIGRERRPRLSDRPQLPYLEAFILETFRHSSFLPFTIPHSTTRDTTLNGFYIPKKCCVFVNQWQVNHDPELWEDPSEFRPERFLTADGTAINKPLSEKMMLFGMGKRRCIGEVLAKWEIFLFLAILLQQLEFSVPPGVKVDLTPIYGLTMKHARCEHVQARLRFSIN

[13] = tested on: laboratory strains of wild-type HIV-1; assay: Antiviral activity against laboratory strains in PBMCs and MT-4 cells; assay type: cell-based; details: Human immunodeficiency virus 1, MT4
UGT1A3 = UGT1A3 (Homo sapiens, UniProt P35503); assay: In vitro substrate assessment, UGT1A3; assay type: in vitro ADME
UGT1A9 = UGT1A9 (Homo sapiens, UniProt O60656); assay: In vitro substrate assessment, UGT1A9; assay type: in vitro ADME
UGT1A9, sequence (O60656 26-530): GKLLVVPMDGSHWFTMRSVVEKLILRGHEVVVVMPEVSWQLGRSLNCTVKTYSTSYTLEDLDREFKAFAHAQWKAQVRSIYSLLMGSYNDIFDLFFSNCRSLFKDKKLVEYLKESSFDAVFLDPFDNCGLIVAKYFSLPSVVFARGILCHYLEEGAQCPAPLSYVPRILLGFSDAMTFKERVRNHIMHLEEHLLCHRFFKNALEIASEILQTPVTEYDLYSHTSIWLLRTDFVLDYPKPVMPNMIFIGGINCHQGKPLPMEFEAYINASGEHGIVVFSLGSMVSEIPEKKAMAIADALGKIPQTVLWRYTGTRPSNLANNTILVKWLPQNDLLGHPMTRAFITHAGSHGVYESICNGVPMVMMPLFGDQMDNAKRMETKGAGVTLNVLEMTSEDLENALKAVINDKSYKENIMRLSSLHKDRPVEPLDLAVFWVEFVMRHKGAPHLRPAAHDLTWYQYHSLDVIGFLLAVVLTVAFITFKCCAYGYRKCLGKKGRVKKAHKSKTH

[14] = Multiple-dose pharmacokinetic properties (Table 7); assay type: in vivo, human; details: population PK, ART treatment-naive adults, 50 mg dolutegravir once daily
OAT3 = OAT3 (Homo sapiens, UniProt Q8TCC7); assay: In vitro inhibition of OAT3; assay type: in vitro ADME
OAT3, sequence (Q8TCC7 whole entry): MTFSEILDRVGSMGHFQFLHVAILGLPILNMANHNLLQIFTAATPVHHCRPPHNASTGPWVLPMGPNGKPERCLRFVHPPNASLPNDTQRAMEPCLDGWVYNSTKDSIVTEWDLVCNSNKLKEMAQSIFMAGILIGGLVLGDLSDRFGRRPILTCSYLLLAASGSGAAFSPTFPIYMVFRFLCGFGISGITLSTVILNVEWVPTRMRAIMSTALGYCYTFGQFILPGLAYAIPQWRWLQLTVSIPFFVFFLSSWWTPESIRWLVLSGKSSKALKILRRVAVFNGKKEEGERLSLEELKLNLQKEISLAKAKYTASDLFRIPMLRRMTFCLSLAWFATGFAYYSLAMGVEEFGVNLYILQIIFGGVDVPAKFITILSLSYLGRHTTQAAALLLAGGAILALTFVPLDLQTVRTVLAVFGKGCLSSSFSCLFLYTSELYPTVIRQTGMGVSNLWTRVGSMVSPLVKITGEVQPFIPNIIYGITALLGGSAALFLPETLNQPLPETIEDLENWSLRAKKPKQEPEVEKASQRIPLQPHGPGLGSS

[15] = molecular target: multidrug resistance protein (MRP)2 (Homo sapiens, UniProt Q92887); assay: In vitro inhibition of MRP2; assay type: in vitro ADME; details: did not inhibit
[16] = molecular target: bile salt export pump (BSEP) (Homo sapiens, UniProt O95342); assay: In vitro inhibition of BSEP; assay type: in vitro ADME; details: did not inhibit
bile salt export pump (BSEP), sequence (O95342 whole entry): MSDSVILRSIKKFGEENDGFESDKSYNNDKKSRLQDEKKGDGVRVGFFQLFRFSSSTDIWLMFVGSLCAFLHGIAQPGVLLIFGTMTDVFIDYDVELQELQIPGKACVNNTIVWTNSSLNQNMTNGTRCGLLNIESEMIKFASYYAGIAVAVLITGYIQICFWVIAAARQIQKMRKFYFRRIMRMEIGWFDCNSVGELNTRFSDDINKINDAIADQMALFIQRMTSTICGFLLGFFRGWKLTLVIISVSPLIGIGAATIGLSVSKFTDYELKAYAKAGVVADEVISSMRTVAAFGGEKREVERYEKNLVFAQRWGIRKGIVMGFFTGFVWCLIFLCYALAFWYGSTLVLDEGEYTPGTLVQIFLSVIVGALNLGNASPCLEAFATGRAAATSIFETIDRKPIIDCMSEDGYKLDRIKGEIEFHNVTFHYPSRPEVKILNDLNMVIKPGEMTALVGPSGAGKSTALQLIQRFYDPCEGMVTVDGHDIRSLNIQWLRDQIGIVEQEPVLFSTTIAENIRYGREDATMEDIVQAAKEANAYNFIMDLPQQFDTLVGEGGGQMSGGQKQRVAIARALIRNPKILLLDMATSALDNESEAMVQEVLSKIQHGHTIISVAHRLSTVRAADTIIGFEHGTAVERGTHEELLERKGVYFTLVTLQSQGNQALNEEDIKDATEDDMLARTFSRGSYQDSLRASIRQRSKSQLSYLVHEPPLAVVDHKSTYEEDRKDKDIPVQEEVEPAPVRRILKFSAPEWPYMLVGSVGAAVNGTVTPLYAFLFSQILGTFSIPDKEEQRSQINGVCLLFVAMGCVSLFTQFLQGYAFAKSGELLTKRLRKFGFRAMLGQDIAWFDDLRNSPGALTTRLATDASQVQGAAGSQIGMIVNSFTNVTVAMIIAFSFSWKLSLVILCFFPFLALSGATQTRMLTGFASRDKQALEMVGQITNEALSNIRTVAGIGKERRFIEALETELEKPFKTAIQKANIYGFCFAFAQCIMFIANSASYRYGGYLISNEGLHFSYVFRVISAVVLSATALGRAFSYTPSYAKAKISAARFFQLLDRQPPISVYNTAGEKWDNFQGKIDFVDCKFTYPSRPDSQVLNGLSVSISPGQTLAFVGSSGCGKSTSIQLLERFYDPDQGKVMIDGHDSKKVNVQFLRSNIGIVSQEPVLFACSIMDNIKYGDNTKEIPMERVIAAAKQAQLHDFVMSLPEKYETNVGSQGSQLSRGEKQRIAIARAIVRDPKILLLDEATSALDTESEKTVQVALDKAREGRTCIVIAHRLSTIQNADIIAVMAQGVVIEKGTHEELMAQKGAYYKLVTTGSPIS

CYP3A = assay: In vitro inhibition of CYP3A; assay type: in vitro ADME; details: human, did not inhibit
HIV-2 clinical isolates = assay: Dolutegravir PBMC assays against HIV-2 clinical isolates; assay type: cell-based; details: Human immunodeficiency virus 2, three HIV-2 clinical isolates
UGT1A1 = UGT1A1 (Homo sapiens, UniProt P22309); assay: In vitro inhibition of UGT1A1; assay type: in vitro ADME; details: did not inhibit
[17] = tested on: INSTI-resistant site-directed mutant HIV-1 viruses; assay: Susceptibility against INSTI-resistant site-directed mutant viruses; assay type: cell-based
[18] = Excretion into milk of lactating rats; assay type: in vivo; details: female, rat, milk / maternal plasma; single oral dose of 50 mg/kg on lactation Day 10; 8 hours postdose; read-out: Milk concentration relative to maternal plasma concentration
[19] = molecular target: organic anion transporter (OAT)1 (Homo sapiens, UniProt Q4U2R8); assay: In vitro inhibition of OAT1; assay type: in vitro ADME
organic anion transporter (OAT)1, sequence (Q4U2R8 whole entry): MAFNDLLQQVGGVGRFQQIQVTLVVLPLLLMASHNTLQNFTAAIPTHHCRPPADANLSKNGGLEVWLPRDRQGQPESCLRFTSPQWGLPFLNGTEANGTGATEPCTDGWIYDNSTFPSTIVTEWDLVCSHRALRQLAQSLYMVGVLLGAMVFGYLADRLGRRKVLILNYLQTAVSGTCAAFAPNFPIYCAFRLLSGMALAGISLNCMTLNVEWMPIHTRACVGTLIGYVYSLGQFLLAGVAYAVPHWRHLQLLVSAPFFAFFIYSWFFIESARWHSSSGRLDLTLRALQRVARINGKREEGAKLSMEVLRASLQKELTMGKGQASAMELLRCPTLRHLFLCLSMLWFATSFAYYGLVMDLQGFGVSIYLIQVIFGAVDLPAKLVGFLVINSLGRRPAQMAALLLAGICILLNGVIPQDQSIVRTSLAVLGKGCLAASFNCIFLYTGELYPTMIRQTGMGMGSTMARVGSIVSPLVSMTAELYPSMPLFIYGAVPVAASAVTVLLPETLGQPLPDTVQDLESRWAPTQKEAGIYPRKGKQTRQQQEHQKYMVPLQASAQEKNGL

With `C[C@@H]1CCO[C@H]2Cn3cc(C(=O)NCc4ccc(F)cc4F)c(=O)c(O)c3C(=O)N12` [Dolutegravir, dolutegravir] the “Antagonism with tested anti-HIV agents” value (HIV) was “Neither dolutegravir nor lamivudine were antagonistic”, the “Effects on embryo-fetal development” value [1] was “No adverse effects” and the IC50 (UGT2B7) was > 50000 nM. The IC50 (CYP2C9) was > 50000 nM, the “Decreased susceptibility to dolutegravir” value ([2]; G118R) was 10 fold and the “Decreased susceptibility to dolutegravir” value ([2]; substitutions E92Q, S153F or Y, G193E or R263K) was “up to 4 fold”. For the same molecule, the “Neural tube defects, % of births” value ([3]; mothers exposed to dolutegravir-containing regimens at the time of conception, 4 of 426 births) was 0.94%, the “Neural tube defect in infants” value ([3]; women who started dolutegravir during pregnancy (n=2,812)) was “No infant” and the “Maximum mean QTc change (QTcF)” value ([4]; dolutegravir 250-mg suspension single dose, baseline and placebo adjusted) was 2.4 ms. For the same molecule, the QTc interval prolongation ([4]; over 24 hours postdose) was “did not prolong”, the IC50 (CYP2D6) was > 50000 nM and the “Genotoxicity, in vivo rodent micronucleus assay” value [5] was “not genotoxic”. The EC50 [6] was 0.02 to 2.14 nM, the IC50 (CYP2B6 [7]) was > 50000 nM and the EC50 [8] was 0.52 nM. The “% of dose excreted as total 14C in feces” value ([9]; single dose) was 64%, the “% of dose excreted as total 14C in urine” value ([9]; single dose) was 31^b % and the “% of dose excreted as unchanged drug in feces” value ([9]; single dose) was 53%. The “% of dose excreted as unchanged drug in the urine” value ([9]; single-dose mass balance study of [14C] dolutegravir) was <1^b %, the “AUC exposure multiple of human (50 mg once daily) with no significant increases in drug-related neoplasms” value [10] was “approximately 20 fold” and the “Induction of CYP2B6” value (CYP2B6 [11]) was “did not induce”. For the same molecule, the half-life ([12]; human) was ~14 h, the “Major route of elimination” value [12] was “Metabolism” and the Metabolic pathways [12] was “UGT1A1; also recorded: CYP3A (minor)”. The “Tmax, median” value [12] was 2.5 h, the IC50 (CYP1A2) was > 50000 nM and the EC50 [13] was 0.5 nM to 2.1 nM and 0.00021 µg/mL to 0.00085 µg/mL. The “Substrate of UGT1A3” value (UGT1A3) was “substrate”, the “Substrate of UGT1A9” value (UGT1A9) was “substrate” and the “AUCtau, Mean (CV %)” value [14] was 53.6 (27%) mcg/h/mL. For the same molecule, the “Cmax, Mean (CV %)” value [14] was 3.67 (20%) mcg/mL, the “Ctrough, Mean (CV %)” value [14] was 1.11 (46%) mcg/mL and the IC50 (OAT3) was 1970 nM. The IC50 [15] was > 50000 nM, the IC50 [16] was > 50000 nM and the IC50 (CYP3A) was > 50000 nM. The EC50 (HIV-2 clinical isolates) was 0.09 to 0.61 nM, the IC50 (UGT1A1) was > 50000 nM and the “Decrease in dolutegravir susceptibility from reference” value ([17]; multiple substitutions T66K/L74M, E92Q/N155H, G140C/Q148R, G140S/Q148H, R or K, Q148R/N155H, T97A/G140S/Q148, E138/G140/Q148) was > 2 fold. For the same molecule, the “Decrease in dolutegravir susceptibility from reference” value ([17]; single INSTI-resistance substitutions T66K, I151L, and S153Y) was > 2 fold, the Kp at 8 h [18] was ≤ 1.3 and the IC50 [19] was 2120 nM.
